# Reference: patent publication US9205102B2, “Method for treatment of castration-resistant prostate cancer” (The University of British Columbia, priority 2013, dated 2015)
# e = 2'-O-(2-methoxyethyl) (MOE); d = 2'-deoxy (DNA)
# What was measured:
# Assay type in all cases: cell-based
# [1] = tested on: MR42F; assay: Cell viability in enzalutamide resistant cell line MR42F (FIG. 5B); conditions: compared to a scrambled control
# Method: (§1) FIGS. 5A and B show cell viability in enzalutamide resistant cell lines MR42D and MR42F, respectively.
# (§2) Tests were performed on androgen sensitive cells line (LNCaP), castrate resistant, enzalutamide-sensitive prostate cancer cell lines V16A and V16D, which were derived from LNCaP cells grown in castrated nude, Matsumoto, H.; Yamamoto, Y.; Shiota, M.; et al. Cancer Res. (2013) 73(16): 5206-17 and Kuruma, H; Matsumoto, H.; Shiota, M. et al. Mol Cancer Ther (2013) 12(5): 567-76; and castrate resistant, enzalutamide-resistant prostate cancer cell lines MR42D, MR49C, and MR49F which were derived from LNCaP cells grown in castrated nude mice treated with enzalutamide at 10 mg/kg PO daily. BPH-1 is an immortal, benign prostatic hyperplasia cell line (Hayward S W, Dahiya R, Cunha G R, et al. (1995). In Vitro Cell Dev Biol Anim 31: 14-24).
# [2] = tested on: IGFBP-2 or IGFBP-5 (predominant IGFBP); assay: Reduction of IGFBP-2 or IGFBP-5 in prostate cancer cell lines in vitro (FIG. 2); conditions: concentrations of 10 nM to 100 nM
# [3] = tested on: IGFBP-2; assay: IGFBP-2 level in V16 samples treated with OGX-225; conditions: V16 samples treated with OGX-225 (10 nM)
# [4] = tested on: MR42D; assay: Cell viability in enzalutamide resistant cell line MR42D (FIG. 5A); conditions: compared to a scrambled control
# Method: as §1, §2
# [5] = tested on: CRPC cell lines exhibiting resistance to enzaluatamide; assay: Killing of enzalutamide-resistant CRPC cell lines (summary statement); conditions: enzalutamide-resistant CRPC cell lines overexpressing IGFBP-2 or IGFBP-5
# Method: In a further aspect of the invention, a method for treatment of prostate cancer is provided in which an agent effective to reduce expression of IGFBP-2 and IGFBP-5 is administered to a patient suffering from prostate cancer, and particularly CRPC, concurrently with the administration of androgen-receptor antagonist treatments. Administration of the antisense concurrently with the androgen-receptor antagonist treatment reduces selective pressure towards resistance within the cancer cell population and therefore can delay onset of androgen-receptor antagonist resistance as well as directly providing a therapeutic benefit by killing resistant cells.
substance,measurement,setting,value
"OGX-225: bispecific second generation antisense oligonucleotide to IGFBP-2 and IGFBP-5; 20 base phosphorothioate 5-10-5 MOE gapmer, 5′-CAGCAGCCGCAGCCCGGCTC-3′ (sugars from the 5' end e5 d10 e5, all C 5-methyl, all phosphorothioate, T or U not given here)",cell viability,[1],substantially reduce the viability
same,amount of the predominant IGFBP,[2],reduce the amount of the predominant IGFBP in a dose dependent manner
same,IGFBP-2 level,[3],Reduction in the IGFBP-2 level
same,cell viability,[4],substantially reduce the viability
same,killing of resistant cells,[5],capable of killing these resistant cells
